Values after ≈ are worked out from the molar mass of the structure shown. Square brackets hold non-standard residues; d marks the D form. Peptide text beside a SMILES is read from it. * marks the point of attachment. NH(1-CH2NMe2-cBu) = CN(C)CC1(N*)CCC1; Benzoyl(4-F) = O=C(c1ccc(F)cc1)*; hCha = N[C@@H](CCC1CCCCC1)C(=O)O; Aib = CC(C)(N)C(=O)O; βAla = NCCC(=O)O
Assays:
[1] = tested on: intracellular Leishmania donovani MHOM-ET-67/L82 amastigotes; assay: In vitro antiprotozoal assay, intracellular amastigotes; type: cell-based; details: intracellular amastigotes; read-out: L.don.InMac IC50
Protocol: (§3) The testing of the inventive compounds against Leishmania donovani (strain MHOM/ET/67/L82) was performed in 96 well plates at concentrations in serial dilutions. Tests were done in triplicate.

[2] = tested on: Clostridium difficile ATCC BAA-1805; details: RCM, anaerobic, 2 days at 36° C., 6027 acetate
Protocol: The antibacterial activity of inventive compounds was determined in duplicate in a Minimum Inhibitory Concentration (MIC) assay.
The antibacterial activity of 6027 acetate was measured using the in vitro broth microdilution assay under assay conditions described by the Clinical and Laboratory Standards Institute. […] Pre-formulated DMSO stock solution (26.67 mg/mL) was provided by sponsor. The 26.67 mg/mL stock solution was then diluted in DMSO to prepare a 6.4 mg/mL working stock solution. The 6.4 mg/mL working stock solution was diluted by 2-fold serial titrations in DMSO, for a total of 11 test concentrations. A 4 μl aliquot of each dilution was added to 196 of broth medium seeded with the organism suspension in wells of a 96 well plate (bacterial count: 2 −8×10^5 colony forming units/mL final). The final volume was 200 μl in each well and the final DMSO concentration was 2 percent. Test concentrations were 128 to 0.125 μg/mL.
Following incubation, the plates were visually examined, and wells were scored for growth or complete growth inhibition to define the minimum inhibitory concentration. […] Vehicle-control and Vancomycin or Linezolid, as depicted at Table 8, were used as blank and positive controls, respectively.

[3] = tested on: Staphylococcus aureus NARSA NRS119; assay: microbe, parasite or virus in culture; type: cell-based; details: NARSA NRS119
[4] = tested on: Staphylococcus aureus ATCC 33591; assay: microbe, parasite or virus in culture; type: cell-based; details: ATCC 33591, Methicillin resistant; 6027 acetate
[5] = tested on: Staphylococcus aureus ECL 2963646; assay: microbe, parasite or virus in culture; type: cell-based
[6] = tested on: S. aureus (USA300 MRSA, BAA-1556); assay: S. aureus dermal infection model in ICR mice, CFU/skin; type: in vivo, Staphylococcus aureus; details: 25 hours post inoculation; topical BID at 1 and 7 h post infection, 20 μL/mouse; 6027 1% in DMSO, fusidic acid 2%
Protocol: Inoculum preparation. The testing strain, S. aureus USA300 MRSA (BAA-1556), was obtained from the frozen working stock and thawed at room temperature. A 0.2 mL aliquot was inoculated into 20 mL Brain-Heart Infusion broth (BHI) and then incubated at 35-37° C. with shaking (120 rpm) for 8 h. Bacterial cells in the 20 mL culture were pelleted by centrifugation at 3,500×g for 15 minutes and then re-suspended in 10 mL cold PBS (>8.0×10^9 CFU/mL, OD620 1.8-2.0). The culture was then diluted in PBS to the target inoculum of 1.0×10^7 CFU/mL. The actual bacterial counts were determined by plating dilutions onto nutrient agar (NA) plates followed by 20-24 h incubation and colony counting. The actual CFU counts were 1.04×10^7 CFU/mL.
S. aureus (USA300 MRSA, BAA-1556) dermal infection model. Groups of 5 female ICR mice weighing 24±2 g were used. Animals were anesthetized with etomidate-lipuro emulsion (20 mg/10 mL) at 20 mg/kg by intravenous (IV) injection, and then the fur on the back was removed by an electric shaver, and the epidermal layer was disrupted with an abrasive paper. Mice were inoculated topically (TOP) on the wound area with S. aureus (MRSA, BAA-1556) suspension, 5 μL/mouse. The target inoculation density was 5×10^4 CFU/mouse and the actual inoculum count 5.2×10^4 CFU/mouse. Animals were housed separately after infection. Compound 6027 in DMSO at 1% was administered topically (TOP) twice (BID) at 1 and 7 h post infection. Reference control agent, fusidic acid cream at 20 mg/gram (2%), was administered TOP BID at 1 and 7 h post infection. One infected and untreated group was sacrificed at 1 h after infection for the initial (baseline) bacterial counts. The dose volumes were 20 μL/mouse for all dosing groups.
Animals were sacrificed at 1 or 25 h after inoculation with CO2 asphyxiation. The infected skin samples of the wound infection (around 2 cm 2 areas) were excised and were homogenized in 1 mL PBS (pH 7.4) with a polytron homogenizer. A 0.1 mL aliquot of each homogenate was used for serial 10-fold dilutions and plated onto NA plates for bacterial enumeration. The bacterial counts (CFU/skin) in skin tissues were calculated and the percentage decrease in counts compared to the corresponding vehicle control (placebo) was calculated with the following formula: Decrease (%)=[(CFU/skin of placebo —CFU/skin of treatment)/(CFU/skin of placebo)]×100%.

[7] = after 48 hours; donor 0.1% 6027 in DMSO; acceptor PBS + 2% Volpo; % of total 6027
Protocol: The ears were washed with tap water and the hairs were removed with an electric clipper. The skin was separated from the underlying cartilage from the backside of the ear by using a scalpel. After washing the skin again, it was stored in aluminium foil at −20° C. for no longer than one month.
After thawing the frozen skin, it was cut into adequate circles and the skin thickness was measured with a calliper. The skin was mounted into the FDC, tightly sealed with Teflon band and fixed in special designed holder. Then the acceptor compartment was equipped with a magnetic stirrer, filled with placebo formulation and equilibrated for one hour. To check the barrier integrity and to be sure that there are no invisible damages from skin preparation TEWL (transepidermal water loss) was measured. The FDCs were then placed in the water bath +32° C. ±1 over a magnetic stirrer (500 rpm). Due to differences of each FDC, the skin application area for drug permeation was measured and calculated for each cell in advance. Consequently, the amount of 6027 for the donor compartment had to be adjusted for the infinite-dose experiment to 284.1 μL/cm^2.
At predefined time points 50 μL samples were taken from the acceptor compartment. The missing volume was replaced with the corresponding placebo formulation.
At the end of the permeation experiment and before reassembling the FDCs, the donor compartments were washed out with 10 mL ACN:H2O (55:45).
To extract 6027 from the skin, the frozen skin was cut into small pieces and grinded by a cryogenic grinder Freezer/Mill® from Spex SamplePrep (Metuchen, USA). The setting was 10 min precooling and a rate of 10 CPS for 4 cycles with 2 minutes. The resulting powder was resuspended in 2 mL ACN:H2O (55:45). After being vortex, the mixtures were ultrasonicated with Branson Sonifier 250 (model: 101-cx03-197) from Branson Ultrasonics Corporation (Danbury, USA). The setting for ultrasonification was output control 2 and duty cycle 30% for 60 seconds. […]
The concentrations of 6027 were determined by using HPLC-MS from Agilent Technologies. […]

physchem = details: octanol/water
[8] = tested on: Staphylococcus aureus NARSA NRS382; assay: microbe, parasite or virus in culture; type: cell-based; details: NARSA NRS382
[9] = tested on: axenic Leishmania donovani MHOM-ET-67/L82 amastigotes; assay: In vitro antiprotozoal assay, axenic amastigotes; type: cell-based; details: axenic amastigotes; read-out: L.don.ax. IC50
Protocol: as §3

[10] = tested on: Staphylococcus aureus ATCC BAA-1556; assay: microbe, parasite or virus in culture; type: cell-based; details: ATCC BAA-1556
[11] = tested on: Staphylococcus aureus ATCC 29213; assay: MIC broth microdilution, method 1; type: cell-based; details: CAMHB II, 1 day at 36° C., 6027 acetate
[12] = tested on: Staphylococcus aureus NARSA NRS383; assay: microbe, parasite or virus in culture; type: cell-based; details: NARSA NRS383
[13] = tested on: Streptococcus agalactiae ATCC 12386; assay: MIC broth microdilution, method 1; type: cell-based; details: CAMHB II, 5% LHB, 1 day at 36° C., 6027 acetate
[14] = tested on: Staphylococcus aureus ATCC BAA-1556, USA300 MRSA; assay: microbe, parasite or virus in culture; type: cell-based; details: ATCC BAA-1556
Protocol: Pre-formulated compound solution was diluted in 100% DMSO to prepare a 1.6 mg/mL working stock solution. […] The concentration range was 0.032 to 32 μg/mL.

[15] = tested on: Staphylococcus aureus NARSA VRS2; assay: microbe, parasite or virus in culture; type: cell-based
[16] = tested on: Streptococcus pyogenes ATCC 19615; assay: MIC broth microdilution, method 1; type: cell-based; details: CAMHB II, 5% LHB, 1 day at 36° C., 6027 acetate
[17] = tested on: Trichophyton mentagrophytes (ATCC 9533); type: cell-based
Protocol: (§1) Pre-formulated compound solution was diluted in 100% DMSO to prepare a 1.6 mg/mL working stock solution. […] Test concentration range was 0.032 to 32 μg/mL.
(§2) Vehicle-control and an active reference agent were used as blank and positive controls.

[18] = tested on: Trichophyton rubrum (ATCC 10218); type: cell-based
Protocol: as §1, §2

## CC(C)C[C@H](NC(=O)[C@H](CCC1CCCCC1)NC(=O)[C@@H]1CCCN1C(=O)c1ccc(F)cc1)C(=O)NC(C)(C)C(=O)N[C@@H](CC(C)C)C(=O)N[C@@H](CC(C)C)C(=O)NC(C)(C)C(=O)NC(C)(C)C(=O)NCCC(=O)NC1(CN(C)C)CCC1 [Compound 6027, (2S)-2-[(2S)-4-cyclohexyl-2-{[(2S)-1-(4-fluorobenzoyl)pyrrolidin-2-yl]formamido}butanamido]-N-(1-{[(1S)-1-{[(1S)-1-({1-[(1-{[2-({1-[(dimethylamino)methyl]cyclobutyl}carbamoyl)ethyl]carbamoyl}-1-methylethyl)carbamoyl]-1-methylethyl}carbamoyl)-3-methylbutyl]carbamoyl}-3-methylbutyl]carbamoyl}-1-methylethyl)-4-methylpentanamide] ({Benzoyl(4-F)}-P[hCha]L[Aib]LL[Aib][Aib][βAla]-{NH(1-CH2NMe2-cBu)})
[1]
  IC50: 54.2 nM
[2]
  MIC of 6027: 0.25 µg/mL
[3]
  MIC of 6027: 2 µg/mL
[4]
  MIC of 6027: 4 µg/mL
[5]
  MIC of 6027: 2 µg/mL
[6]
  Decrease (%) in CFU/skin vs vehicle control: 71%
  LogCFU/skin after 25 hours (Standard error of the mean − SEM): 6.50 (0.16) LogCFU/skin
[7]
  Acceptor (%): 0.2%
  Donor (%): 79%
  Skin extraction (%) (skin penetration): 16%
physchem
  logD: 4.56
[8]
  MIC of 6027: 1 µg/mL
[9]
  IC50: 5.7 nM
[10]
  MIC of 6027: 2 µg/mL
[11]
  MIC of 6027: 1 µg/mL
[12]
  MIC of 6027: 2 µg/mL
[13]
  MIC of 6027: 1 µg/mL
[14]
  MIC: 1 µg/mL (≈ 0.847 µM)
[15]
  MIC of 6027: 2 µg/mL
[16]
  MIC of 6027: 4 µg/mL
[17]
  T. mentagrophytes (ATCC 9533) MIC: 16 µg/mL
[18]
  T. rubrum (ATCC 10218) MIC: 32 µg/mL

Reference: patent US20240174714A1, “TREATMENT OF SKIN DISORDERS” (priority 2021, published 2024)
